Molecules are shown by their SMILES.

Chain of OX2R (O43614 whole entry): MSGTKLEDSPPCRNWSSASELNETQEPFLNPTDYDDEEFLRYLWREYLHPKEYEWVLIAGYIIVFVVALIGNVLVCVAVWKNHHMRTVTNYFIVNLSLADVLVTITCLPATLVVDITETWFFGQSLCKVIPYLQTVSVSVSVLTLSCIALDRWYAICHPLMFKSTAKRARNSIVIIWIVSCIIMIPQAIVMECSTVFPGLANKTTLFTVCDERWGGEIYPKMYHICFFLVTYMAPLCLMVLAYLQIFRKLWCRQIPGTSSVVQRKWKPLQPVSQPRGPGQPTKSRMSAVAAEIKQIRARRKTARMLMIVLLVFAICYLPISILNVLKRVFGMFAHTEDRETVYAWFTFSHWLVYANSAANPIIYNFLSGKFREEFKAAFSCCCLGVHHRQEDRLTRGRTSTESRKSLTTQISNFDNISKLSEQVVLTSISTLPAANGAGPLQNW

This test addresses OX2R (Homo sapiens (Human), UniProt O43614). Nature of the test: radioligand binding assay, OX2 receptor. Conditions: membranes prepared from CHO cells expressing the OX2 receptor. Here is the method:
The utility of the compounds in accordance with the present invention as orexin receptor OX1R and/or OX2R antagonists may be readily determined without undue experimentation by methodology well known in the art, including the “FLIPR Ca^2+ Flux Assay” (Okumura et al., Biochem. Biophys. Res. Comm. 280:976-981, 2001). In a typical experiment the OX1 and OX2 receptor antagonistic activity of the compounds of the present invention was determined in accordance with the following experimental method. For intracellular calcium measurements, Chinese hamster ovary (CHO) cells expressing the rat orexin-1 receptor or the human orexin-2 receptor, are grown in Iscove's modified DMEM containing 2 mM L-glutamine, […], 1% hypoxanthine-thymidine supplement, 100 U/ml penicillin, 100 ug/ml streptomycin and 10% heat-inactivated fetal calf serum (FCS). The cells are seeded at 20,000 cells/well into Becton-Dickinson black 384-well clear bottom sterile plates coated with poly-D-lysine. All reagents were from GIBCO-Invitrogen Corp. The seeded plates are incubated overnight at 37° C. and 5% CO2. Ala-6,12 human orexin-A as the agonist is prepared as a 1 mM stock solution in 1% bovine serum albumin (BSA) and diluted in assay buffer (HBSS containing 20 mM HEPES, 0.1% BSA and 2.5 mM probenecid, pH7.4) for use in the assay at a final concentration of […]. Test compounds are prepared as 10 mM stock solution in DMSO, then diluted in 384-well plates, first in DMSO, then assay buffer. On the day of the assay, cells are washed 3 times with 100 ul assay buffer and then incubated for 60 min (37° C., 5% CO2) in 60 ul assay buffer containing 1 uM Fluo-4AM ester, 0.02% pluronic acid, and 1% BSA. The dye loading solution is then aspirated and cells are washed 3 times with 100 ul assay buffer. 30 ul of that same buffer is left in each well. Within the Fluorescent Imaging Plate Reader (FLIPR, Molecular Devices), test compounds are added to the plate in a volume of 25 ul, incubated for 5 min and finally 25 ul of agonist is added. Fluorescence is measured for each well at 1 second intervals for 5 minutes and the height of each fluorescence peak is compared to the height of the fluorescence peak induced by 70 pM Ala-6,12 orexin-A with buffer in place of antagonist. […] Alternatively, compound potency can be assessed by a radioligand binding assay (described in Bergman et. al. Bioorg. Med. Chem. Lett. 2008, 18, 1425-1430) in which the inhibition constant (Ki) is determined in membranes prepared from CHO cells expressing either the OX1 or OX2 receptor. The intrinsic orexin receptor antagonist activity of a compound which may be used in the present invention may be determined by these assays.
The Ki is a measure of affinity in units of concentration, obtained from inhibition or displacement. The compound `COc1ccc(CNC(=O)c2cc(-c3cncc(C)c3)ncc2-c2nccs2)nc1OC` [7-5, N-[(5,6-Dimethoxypyridin-2-yl)methyl]-5′-methyl-5-(1,3-thiazol-2-yl)-2,3′-bipyridine-4-carboxamide] displayed an inhibition constant Ki of 0.95 nM.

For the compound `COc1ncc(CNC(=O)c2cc(-c3cncc(C)c3)ncc2-c2cccc(F)c2)nc1OC` [1-13], the affinity, expressed as Ki, was 4.5 nM. Against the preceding compound, the Ki is about 4.7-fold higher. Compound `COc1ccc(CNC(=O)c2cc(-c3cncc(C)c3)ncc2-c2cccc(F)c2)nc1OC` [1-16] came in with a Ki of 0.91 nM. This Ki lies about 4.9-fold lower than the previous one. Compound `COc1nc(CNC(=O)c2cc(-c3cncc(C)c3)ncc2-c2nccs2)ccc1C1CC1` [7-7, N-[(5-cyclopropyl-6-methoxypyridin-2-yl)methyl]-5′-methyl-5-(1,3-thiazol-2-yl)-2,3′-bipyridine-4-carboxamide] showed a Ki of 0.97 nM.

The values are drawn from US8592457B2, “Isonicotinamide orexin receptor antagonists” (Merck Sharp & Dohme Corp., priority 2008, dated 2013).
